Experimental data published in US7618656B2, “Method for use of lanthanum carbonate pharmaceutical compositions” (Shire International Licensing B.V., priority 2006, dated 2009).

Test: Attempted conversion of polymorph (II) to polymorph (I) by heating in water
Type: physicochemical
Conditions: 18 days at 90-100° C.
Excerpt: An attempt was made to convert polymorph (II) to polymorph (I) by heating in water for an extended period of time.

Structure (SMILES): O=C([O-])[O-].[La+3].[OH-] [polymorph (II), lanthanum hydroxycarbonate]
- conversion of polymorph (II) to polymorph (I) (polymorph stability): No evidence of conversion
